Results published in ChEMBL document CHEMBL2016517, “3D Pharmacophore Model-Assisted Discovery of Novel CDC7 Inhibitors” (ACS Med Chem Lett, 2011).

Target: CDC7/DBF4 (Cell division cycle 7-related protein kinase/Activator of S phase kinase) (Homo sapiens, UniProt O00311)
Test: Inhibition of CDC7/DBF4 using MCM-2 as substrate after 1 hr
Type: protein-complex assay

Sequence of CDC7/DBF4 (Cell division cycle 7-related protein kinase/Activator of S phase kinase) (Q9UBU7 whole entry): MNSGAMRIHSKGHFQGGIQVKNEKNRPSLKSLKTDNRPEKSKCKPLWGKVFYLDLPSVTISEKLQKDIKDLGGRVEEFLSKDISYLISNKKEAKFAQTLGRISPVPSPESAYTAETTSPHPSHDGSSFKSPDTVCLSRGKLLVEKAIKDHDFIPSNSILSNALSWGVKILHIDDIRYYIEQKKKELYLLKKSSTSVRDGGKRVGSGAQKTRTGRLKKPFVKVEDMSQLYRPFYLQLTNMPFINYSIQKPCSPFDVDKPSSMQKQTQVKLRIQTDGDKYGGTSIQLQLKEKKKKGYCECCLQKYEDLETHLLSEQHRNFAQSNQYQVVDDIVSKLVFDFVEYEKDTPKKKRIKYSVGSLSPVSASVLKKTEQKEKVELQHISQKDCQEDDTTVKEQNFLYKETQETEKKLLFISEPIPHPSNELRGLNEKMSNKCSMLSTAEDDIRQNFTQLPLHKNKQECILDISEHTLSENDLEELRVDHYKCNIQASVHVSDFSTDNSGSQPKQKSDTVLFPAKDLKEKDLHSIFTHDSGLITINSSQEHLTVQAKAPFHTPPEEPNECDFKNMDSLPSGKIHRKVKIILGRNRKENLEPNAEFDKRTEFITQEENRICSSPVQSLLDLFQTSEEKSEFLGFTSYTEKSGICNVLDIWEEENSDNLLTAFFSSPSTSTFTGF
Sequence of CDC7/DBF4 (Cell division cycle 7-related protein kinase/Activator of S phase kinase) (O00311 whole entry): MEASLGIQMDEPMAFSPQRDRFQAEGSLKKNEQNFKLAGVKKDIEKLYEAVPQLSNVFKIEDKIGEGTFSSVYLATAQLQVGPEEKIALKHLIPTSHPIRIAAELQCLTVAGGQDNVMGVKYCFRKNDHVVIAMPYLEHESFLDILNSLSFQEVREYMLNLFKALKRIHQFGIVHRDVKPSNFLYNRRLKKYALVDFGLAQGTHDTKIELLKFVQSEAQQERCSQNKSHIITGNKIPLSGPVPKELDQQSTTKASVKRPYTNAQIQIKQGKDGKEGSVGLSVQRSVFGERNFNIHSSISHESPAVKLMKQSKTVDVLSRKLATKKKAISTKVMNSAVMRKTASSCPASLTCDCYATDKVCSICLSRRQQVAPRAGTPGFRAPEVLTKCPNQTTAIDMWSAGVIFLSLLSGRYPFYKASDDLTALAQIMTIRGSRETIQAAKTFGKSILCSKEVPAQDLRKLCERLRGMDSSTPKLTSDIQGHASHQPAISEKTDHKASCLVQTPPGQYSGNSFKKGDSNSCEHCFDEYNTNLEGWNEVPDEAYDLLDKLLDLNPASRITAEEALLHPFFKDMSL

SMILES	IC50
O=C1CCC2(CCCCC2)c2sc(-c3cn[nH]c3)cc21	0.001 µM
Nc1cc(-c2cc3c(s2)C2(CCCCC2)CCC3=O)ccn1	0.033 µM
O=C1CCC2(CCCCC2)c2sc(-c3ccncc3)cc21	0.009 µM
O=C1NCCc2sc(-c3ccncc3)cc21	0.033 µM
O=C1NCC2(CCCCC2)c2sc(-c3cc[nH]n3)cc21	0.37 µM
Cn1cc(-c2cc3c(s2)C2(CCCCC2)CNC3=O)cn1	> 25 µM
O=C1NCC2(CCCCC2)c2sc(-c3cn[nH]c3)cc21	0.001 µM
O=C1NCC2(CCCCC2)c2sc(-c3ncnc4[nH]cnc34)cc21	0.001 µM
CNC(=O)c1cc(-c2cc3c(s2)C2(CCCCC2)CNC3=O)ccn1	> 25 µM
CC(=O)Nc1cccc(-c2cc3c(s2)C2(CCCCC2)CNC3=O)c1	> 25 µM
CC(=O)Nc1cc(-c2cc3c(s2)C2(CCCCC2)CNC3=O)ccn1	0.041 µM
Nc1cc(-c2cc3c(s2)C2(CCCCC2)CNC3=O)ccn1	0.008 µM
O=C1NCC2(CCCCC2)c2sc(-c3cccnc3)cc21	5.1 µM
O=C1NCC2(CCCCC2)c2sc(-c3ccncc3)cc21	< 0.001 µM
O=C1NCC2(CCCCC2)c2sc(Cl)cc21	> 25 µM
